One test deals with T1, JAK2 tyrosine kinase (Homo sapiens, UniProt O60674).
T1 construct: purchased Carnabioscience Co
Put plainly: Test 1: inhibitory activity to JAK2 tyrosine kinase (ELISA). As to conditions: 25 μM ATP in substrate solution, 30° C. for 1 hour, n=2. The test is classed as biochemical. The procedure, abridged:
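This is an ELISA read at A450 (HRP anti-phosphotyrosine antibody, TMB) of biotin-peptide phosphorylation captured on streptavidin. Enzyme solution was 0.75 nM JAK2, and the substrate solution was 625 nM peptide with 25 μM ATP in Tris pH 7.5 buffer. The reaction ran 1 h at 30 °C with compounds in duplicate, and IC50 was fitted non-linearly.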

For another test, the target named is T2, JAK3 tyrosine kinase (Homo sapiens, UniProt P52333).
T2 construct: purchased Carnabioscience Co
T2 sequence (P52333 1-1124): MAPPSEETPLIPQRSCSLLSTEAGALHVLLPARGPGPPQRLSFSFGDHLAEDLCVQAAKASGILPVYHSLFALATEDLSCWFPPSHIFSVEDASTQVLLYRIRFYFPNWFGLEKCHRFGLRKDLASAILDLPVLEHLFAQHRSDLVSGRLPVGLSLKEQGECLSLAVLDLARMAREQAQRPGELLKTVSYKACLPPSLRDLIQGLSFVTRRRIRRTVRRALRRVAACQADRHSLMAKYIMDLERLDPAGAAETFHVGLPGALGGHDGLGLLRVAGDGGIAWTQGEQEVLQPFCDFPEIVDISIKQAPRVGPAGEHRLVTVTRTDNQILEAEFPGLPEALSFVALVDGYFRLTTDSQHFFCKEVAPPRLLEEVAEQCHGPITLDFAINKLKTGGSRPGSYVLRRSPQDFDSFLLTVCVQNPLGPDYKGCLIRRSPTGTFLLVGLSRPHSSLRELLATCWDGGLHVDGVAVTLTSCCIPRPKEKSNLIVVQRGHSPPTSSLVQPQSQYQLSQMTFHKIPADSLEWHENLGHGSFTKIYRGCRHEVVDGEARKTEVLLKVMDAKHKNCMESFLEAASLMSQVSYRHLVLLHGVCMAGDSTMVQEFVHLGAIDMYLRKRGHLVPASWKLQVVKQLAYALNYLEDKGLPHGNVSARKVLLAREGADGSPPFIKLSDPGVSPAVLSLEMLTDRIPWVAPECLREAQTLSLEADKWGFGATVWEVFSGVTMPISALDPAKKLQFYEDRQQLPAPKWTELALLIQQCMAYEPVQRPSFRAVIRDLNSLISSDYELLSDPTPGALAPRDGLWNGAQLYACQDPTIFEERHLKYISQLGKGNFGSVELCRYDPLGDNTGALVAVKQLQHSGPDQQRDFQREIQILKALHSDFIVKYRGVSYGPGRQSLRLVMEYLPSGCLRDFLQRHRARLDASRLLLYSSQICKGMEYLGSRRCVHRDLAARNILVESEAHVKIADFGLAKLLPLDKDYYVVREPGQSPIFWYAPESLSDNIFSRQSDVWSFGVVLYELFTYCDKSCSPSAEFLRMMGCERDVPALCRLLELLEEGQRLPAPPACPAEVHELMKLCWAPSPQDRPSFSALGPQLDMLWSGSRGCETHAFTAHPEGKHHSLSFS
As to the kind of experiment: Test 1: inhibitory activity to JAK3 tyrosine kinase (ELISA). The test is classed as biochemical. As to conditions: 25 μM ATP in substrate solution, 30° C. for 1 hour, n=2. The procedure, abridged: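 ELISA of JAK3 kinase activity with absorbance read at 450 nm. Compounds were tested from DMSO dilution series at 100-fold the measurement concentrations (1000–0.01 μM), diluted up to 20 times in assay buffer, against a DMSO negative control. IC50 was estimated by non-linear regression of absorbance.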
(ELISA stands for enzyme-linked immunosorbent assay.)

Test [1] has as its target BaF3 cells into which JAK2 V617F gene was introduced (Homo sapiens, UniProt O60674, V617F, cells depend on it). As to the kind of experiment: Test 2: growth inhibitory action against variant JAK2 expressed cells (MTT method). The test is classed as cell-based. As to conditions: incubation for 3 days, triplicate, read-out: concentration of the test material which inhibited 50% of the cell growth (IC50). The method, then:
Test 2: Growth inhibitory action against variant JAK2 expressed cells
BaF3 cells into which JAK2 V617F gene was introduced ([…]) were inoculated on a 96-well plate in an amount of 1×10^3 cells/well and allowed to stand in a CO2 incubator. Next day, the test material was added to the cells. The test material was serially diluted with DMSO to give 10 mM, 6 mM, 3 mM, 1 mM, 600 μM, 300 μM, 100 μM, 60 μM, 30 μM, or 10 μM solution. This was diluted 100 times with distilled water to give 100 μM, 60 μM, 30 μM, 10 μM, 6 μM, 3 μM, 1 μM, 600 nM, 300 nM, or 100 nM solution. This solution of test material was added to the well in an amount of 10 μl/well. As a negative control, 1% DMSO solution was added to the well in an amount of 10 μl/well. In the above operation, the final concentration of the test material became 10 μM, 6 μM, 3 μM, 1 μM, 600 nM, 300 nM, 100 nM, 60 nM, 30 nM, 10 nM, or 0 nM (0.1% DMSO solution). The addition of the test material solution to each well was made in triplicate.
After continuous incubation for 3 days, the viable count was determined by an MTT method. The MTT method was carried out as follows. First, 10 μl each of solution containing 5 mg/ml of MTT (3-(4,5-dimethylthiazol-2-yl)-2,5-diphenyltetrazolium bromide) was added to each well. The plate was allowed to stand in a CO2 incubator for 4 hours, and then 100 μl of 0.04N HCl/2-propanol solution was added to each well to stop the reaction. The generated MTT-formazan was dissolved well with a multi-channel pipette, and the absorbance at 595 nm was measured with reference to that at 655 nm (Thermo Co.; Multiskan FC). Non-linear regression analysis was made by means of a SAS system (SAS Institute Inc.), and the concentration (IC50) of the test material which inhibited 50% of the cell growth was estimated.

Structures can show the parent of a compound that is named as a salt. Where two headings read alike, the source gives them in different places.

BaF3 cells into which JAK2 V617F gene was introduced, sequence (O60674 whole entry V617F): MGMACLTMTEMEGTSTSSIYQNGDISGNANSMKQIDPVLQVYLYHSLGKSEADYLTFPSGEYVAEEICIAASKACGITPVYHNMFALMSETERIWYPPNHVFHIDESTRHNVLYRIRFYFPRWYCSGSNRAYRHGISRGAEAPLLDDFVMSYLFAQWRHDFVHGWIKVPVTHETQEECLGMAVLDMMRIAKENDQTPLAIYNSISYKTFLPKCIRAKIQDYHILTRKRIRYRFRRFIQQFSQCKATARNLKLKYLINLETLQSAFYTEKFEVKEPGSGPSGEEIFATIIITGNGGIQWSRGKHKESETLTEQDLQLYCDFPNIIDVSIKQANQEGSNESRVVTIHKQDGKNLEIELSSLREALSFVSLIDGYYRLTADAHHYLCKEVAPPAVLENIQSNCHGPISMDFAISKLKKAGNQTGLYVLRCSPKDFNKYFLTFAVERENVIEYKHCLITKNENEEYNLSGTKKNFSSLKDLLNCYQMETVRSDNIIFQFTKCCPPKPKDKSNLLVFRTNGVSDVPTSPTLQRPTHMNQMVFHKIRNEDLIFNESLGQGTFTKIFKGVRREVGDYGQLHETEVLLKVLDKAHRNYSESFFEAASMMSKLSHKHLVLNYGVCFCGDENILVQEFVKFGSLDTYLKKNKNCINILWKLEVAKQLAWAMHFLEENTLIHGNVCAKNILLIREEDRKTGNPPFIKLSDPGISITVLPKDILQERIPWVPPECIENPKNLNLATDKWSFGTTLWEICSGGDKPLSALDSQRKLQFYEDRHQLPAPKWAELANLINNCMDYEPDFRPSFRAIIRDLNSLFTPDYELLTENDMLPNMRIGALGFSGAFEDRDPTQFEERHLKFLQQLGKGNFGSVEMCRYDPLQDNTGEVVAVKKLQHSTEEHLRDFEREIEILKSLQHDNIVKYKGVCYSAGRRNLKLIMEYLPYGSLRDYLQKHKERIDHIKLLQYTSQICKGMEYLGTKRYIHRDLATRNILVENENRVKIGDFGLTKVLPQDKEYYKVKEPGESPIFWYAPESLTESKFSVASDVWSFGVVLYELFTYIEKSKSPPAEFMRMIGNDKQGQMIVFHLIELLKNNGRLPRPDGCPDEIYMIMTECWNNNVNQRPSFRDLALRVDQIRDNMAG
T1 sequence (O60674 whole entry): as the sequence (O60674 whole entry V617F) above, with F617V counted along it

For `C[C@H](Nc1nc(Nc2cnccn2)cc(N2CC(N3CCN(C)CC3)C2)n1)c1ccc(F)cc1` [Example 224, (S)—N^2-[1-(4-Fluorophenyl)ethyl]-6-[3-(4-methylpiperazin-1-yl)azetidin-1-yl]-N^4-(pyrazin-2-yl)pyrimidine-2,4-diamine], the concentration for half-maximal inhibition (IC50) (in general, the concentration needed to halve the response being measured) came to 1.1 nM on JAK2 tyrosine kinase and 16 nM against JAK3 tyrosine kinase. Besides, the GI50 in test [1] is 94 nM.
With `C[C@H](Nc1nc(Nc2cnccn2)cc(N2CCNC(=O)C2)n1)c1ccc(F)cc1` [Example 1, (S)-4-{2-[1-(4-Fluorophenyl)ethylamino]-6-(pyrazin-2-ylamino)pyrimidin-4-yl}piperazin-2-one], the half-maximal inhibitory concentration (IC50) amounted to 0.94 nM against JAK2 tyrosine kinase and 45 nM against JAK3 tyrosine kinase. Also, the GI50 in test [1] worked out at 83 nM.
Turning to `CC(=O)N[C@@H]1CCN(c2cc(Nc3cnccn3)nc(N[C@@H](C)c3ccc(F)cc3)n2)C1` [Example 27, N—((R)-1-{2-[(S)-1-(4-Fluorophenyl)ethylamino]-6-(pyrazin-2-ylamino)pyrimidin-4-}pyrrolidin-3-yl)acetamide hydrochloride], the half-inhibitory concentration (IC50) on JAK2 tyrosine kinase was determined as 0.52 nM; at JAK3 tyrosine kinase it was 42 nM. The GI50 in test [1] turned out to be 89 nM.
In the same order, the values of `C[C@H](Nc1cc(-c2cn[nH]c2)cc(Nc2cnccn2)n1)c1ccc(F)cc1` [Example 28, (S)—N^2-[1-(4-Fluorophenyl)ethyl]-N^6-(pyrazin-2-yl)-4-(1H-pyrazol-4-yl)pyridine-2,6-diamine] are 1.2 nM, 110 nM and 94 nM.
Regarding `C[C@H](Nc1nc(Nc2cnccn2)cc(N2CCN(S(C)(=O)=O)CC2)n1)c1ccc(F)cc1` [Example 65, (S)—N^2-[1-(4-Fluorophenyl)ethyl]-6-[4-(methylsulfonyl)piperazin-1-yl]-N^4-(pyrazin-2-yl)pyrimidine-2,4-diamine hydrochloride], the IC50 against JAK2 tyrosine kinase turned out to be 0.27 nM; against JAK3 tyrosine kinase, 8.9 nM. In addition, in test [1], the GI50 turned out to be 93 nM.
Regarding `C[C@H](Nc1nc(Nc2cnccn2)cc(N2CC(N3CCOCC3)C2)n1)c1ccc(F)cc1` [Example 223, (S)—N^2-[1-(4-Fluorophenyl)ethyl]-6-(3-morpholinoazetidin-1-yl)-N^4-(pyrazin-2-yl)pyrimidine-2,4-diamine], the half-inhibitory concentration (IC50) was 0.65 nM on JAK2 tyrosine kinase and 11 nM on JAK3 tyrosine kinase. The GI50 in test [1] came to 57 nM.
In the case of `CC(C)CNC(=O)c1cc(Nc2cnccn2)nc(N[C@@H](C)c2ccc(F)cc2)c1` [Example 170, (S)-2-[1-(4-Fluorophenyl)ethylamino]-N-isobutyl-6-(pyrazin-2-ylamino) isonicotinamide], the values for the IC50 against JAK2 tyrosine kinase and on JAK3 tyrosine kinase were 1.2 nM and 180 nM, respectively. In addition, in test [1], the GI50 was found to be 77 nM.
As for `C[C@H](Nc1nc(Nc2cnccn2)cc(N2CCC(C(N)=O)CC2)n1)c1ccc(F)cc1` [Example 56, (S)-1-{2-[1-(4-Fluorophenyl)ethylamino]-6-(pyrazin-2-ylamino)pyrimidin-4-yl}piperidine-4-carboxamide hydrochloride], the half-maximal inhibitory concentration (IC50) against JAK2 tyrosine kinase was determined as 0.79 nM; against JAK3 tyrosine kinase, 24 nM. Also, in test [1], the GI50 was found to be 81 nM.
For the molecule `C[C@H](Nc1cc(-c2cnn(C)c2)cc(Nc2cnccn2)n1)c1ccc(F)cc1` [Example 4, (S)—N^2-[1-(4-Fluorophenyl)ethyl]-4-(1-methyl-1H-pyrazol-4-yl)-N^6-(pyrazin-2-yl)pyridine-2,6-diamine hydrochloride], the half-maximal inhibitory concentration (IC50) against JAK2 tyrosine kinase is 0.59 nM; on JAK3 tyrosine kinase, 44 nM. Further, the GI50 in test [1] (hydrochloride) was 71 nM.
Regarding `CC(=O)NCC1CN(c2cc(Nc3cnccn3)nc(N[C@@H](C)c3ccc(F)cc3)n2)C1` [Example 232, (S)—N-[(1-{2-[1-(4-Fluorophenyl)ethylamino]-6-(pyrazin-2-ylamino)pyrimidin-4-yl}azetidin-3-yl)methyl]acetamide], the IC50 on JAK2 tyrosine kinase came out at 0.55 nM; on JAK3 tyrosine kinase, 32 nM. In addition, in test [1], the GI50 was found to be 88 nM.
With `C[C@H](Nc1nc(Nc2cnccn2)cc(N2CCC(O)(CO)CC2)n1)c1ccc(F)cc1` [Example 105, (S)-1-{2-[1-(4-Fluorophenyl)ethylamino]-6-(pyrazin-2-ylamino)pyrimidin-4-yl}-4-(hydroxymethyl)piperidin-4-ol], the half-maximal inhibitory concentration (IC50) amounted to 0.55 nM against JAK2 tyrosine kinase and 27 nM against JAK3 tyrosine kinase. In test [1], the GI50 was 60 nM.
For `CCS(=O)(=O)NCC1CN(c2cc(Nc3cnccn3)nc(N[C@@H](C)c3ccc(F)cc3)n2)C1` [Example 231, (S)—N-[(1-{2-[1-(4-Fluorophenyl)ethylamino]-6-(pyrazin-2-ylamino)pyrimidin-4-yl}azetidin-3-yl)methyl]ethane sulfonamide], the IC50 against JAK2 tyrosine kinase came out at 0.59 nM; against JAK3 tyrosine kinase it was 33 nM. In test [1], the GI50 is 97 nM.
Turning to `C[C@H](Nc1nc(Nc2cnccn2)cc(N2CC(N(C)C)C2)n1)c1ccc(F)cc1` [Example 220, (S)-6-[3-(Dimethylamino)azetidin-1-yl]-N^2-[1-(4-fluorophenyl)ethyl]-N^4-(pyrazin-2-yl)pyrimidine-2,4-diamine], the IC50 against JAK2 tyrosine kinase was found to be 0.98 nM; against JAK3 tyrosine kinase, 24 nM. Further, the GI50 in test [1] turned out to be 64 nM.
Take `CC(=O)N[C@H]1CCN(c2cc(Nc3cnccn3)nc(N[C@@H](C)c3ccc(F)cc3)n2)C1` [Example 2, N-{(S)-1-[2-{[(S)-1-(4-Fluorophenyl)ethyl]amino-}-6-(pyrazin-2-ylamino)pyrimidin-4-yl]pyrrolidin-3-yl}acetamide hydrochloride]: the 50% inhibitory concentration (IC50) is 0.49 nM at JAK2 tyrosine kinase and 43 nM against JAK3 tyrosine kinase. For the same molecule, in test [1], the GI50 stood at 70 nM.
As for `C[C@H](Nc1nc(Nc2cnccn2)cc(N2CCC(O)C2)n1)c1ccc(F)cc1` (stereo partly drawn) [Example 50, 1-{2-[(S)-1-(4-Fluorophenyl)ethylamino]-6-(pyrazin-2-ylamino)pyrimidin-4-yl}pyrrolidin-3-ol hydrochloride], the values for the concentration for half-maximal inhibition (IC50) at JAK2 tyrosine kinase and against JAK3 tyrosine kinase were 0.84 nM and 29 nM, respectively. The GI50 in test [1] is 53 nM.

The record behind these values is patent US8586591B2, “Aminopyrazine derivative and medicine” (Nippon Shinyaku Co., Ltd., priority 2009, dated 2013).
